Assay [1] relates to H3K9me2 in CD34+ cells. Nature of the assay: Western blotting of H3K9me2 in CD34+ cells. Type of assay: cell-based, human. The protocol: HUDEP-2 cells and HiDEP-1 cells were grown in Stemline II Hematopoietic Stem Cell Expansion Medium (Sigma) supplemented with 50 ng/mL recombinant stem cell factor (SCF; R&D systems), 3 IU/mL recombinant erythropoietin (EPO; Kyowa Kirin), 1 μM dexamethasone (Dex; Sigma), and 1 μg/mL doxycycline (Sigma). A total of 1 × 10^5 human CD34^+ progenitor cells derived from bone marrow or peripheral blood (Lonza) were cultured on 35-mm dishes (BD Falcon) in StemSpan SFEMII medium with 50 ng/mL SCF, 5 IU/mL EPO, and 10 ng /mL interleukin 3 (IL-3; R&D systems). The medium was changed on day 4 to SCF, EPO, and 1 μM Dex, and the cells were transferred to 60-mm dishes (BD Falcon). Seven days after the onset of differentiation, cells were counted and 1 × 10^6 cells were re-plated on 100-mm dishes (BD Falcon) with SCF, EPO, and Dex. The rat myoblast cell line H9c2, HEK293T, and PLAT-E cells were maintained in Dulbecco’s modified Eagle’s medium (Thermo Fisher Scientific) supplemented with 10% heat-inactivated fetal bovine serum (FBS) and penicillin/streptomycin. All cells were cultured at 37 °C under 5% CO2.
Preparation of cell lysates and western blotting were performed as described previously. […] The immune complexes were detected with the Immobilon Western Chemiluminescent HRP Substrate (Millipore). Luminescence was analyzed on a FUSION SOLO S (Vilber). […]
For orientation: In western blotting, separated proteins are transferred to a membrane and probed.

Assay [2] deals with H3K9me2 at the β-globin locus. Nature of the assay: ChIP-qPCR with antibody against H3K9me2 in HUDEP-2 cells. It counts as cell-based, human. More on the design: ChIP-qPCR using antibodies against H3K9me2 in HUDEP-2 cells: scale not given here. Conditions: for ChIP-qPCR using antibodies against H3K9me2 in HUDEP-2 cells: experiments 1-3, a/b replicates. How it is done: A total of 0.5–1 × 10^6 cells were cross-linked with 1% formaldehyde for 10 min at room temperature and the reaction was quenched with 250 mM glycine. Cross-linked cells were then lysed with buffer 1 (15 mM Tris-HCl (pH 7.5), 60 mM KCl, 15 mM NaCl, 5 mM MgCl2, 0.1 mM EGTA, 300 mM sucrose, […], 1 mM phenylmethanesulfonyl fluoride (PMSF), 0.5% NP40) and incubated on ice for 10 min. After centrifugation, the pellet was re-suspended in buffer 2 (15 mM Tris-HCl (pH 7.5), 60 mM KCl, 15 mM NaCl, 5 mM MgCl2, 0.1 mM EGTA, 1.2 M sucrose, […], 1 mM PMSF). After centrifugation, the pellet was then re-suspended in MNase buffer (50 mM Tris-HCl (pH 7.5), 1 mM CaCl2, 4 mM MgCl2, 320 mM sucrose, 1 mM PMSF) and digested with 100 U of micrococcal nuclease (Takara) at 37 °C for 15 min. After the reaction was quenched with 20 mM EDTA, the supernatants were incubated with antibodies (anti-H3K9me2 (1:100), Abcam, ab1220; anti-H3K9ac (1:100), Active Motif, 39917; Goat anti-IgG (H + L) (1:100), Jackson Immunoresearch; anti-BCL11A (1:100), Novus Biologicals, NB600-261; anti-ZBTB7A (1:100), Thermo Fisher Scientific, eBioscience (13E9); anti-CHD3 (1:100), Novus Biologicals, NB-100-60412; anti-CHD4 (1:100), abcam, ab240640) and Protein A/G PLUS-Agarose (Santa Cruz Biotechnology) overnight at 4 °C. Beads were washed sequentially once with the following buffers: wash buffer A (50 mM Tris-HCl (pH 7.5), 75 mM NaCl, 10 mM EDTA, 0.01% NP40), wash buffer B (50 mM Tris-HCl (pH 7.5), 100 mM NaCl, 10 mM EDTA, 0.01% NP40), wash buffer C (50 mM Tris-HCl (pH 7.5), 175 mM NaCl, 10 mM EDTA, 0.01% NP40). After treatment with proteinase K in buffer 4 (20 mM Tris-HCl (pH 8.0), 10 mM EDTA, 400 mM NaCl, 0.5% SDS) at 56 °C overnight, DNA was purified using the FastGene Gel/PCR Extraction Kit (Nippon Genetics). The samples were analyzed by qPCR. Primers are listed in Supplementary Table 10. ChIP-seq experiments were performed by GENEWIZ. Tracks were visualized using the integrative genome viewer. ChIP-seq analysis were analyzed Cutadapt (V1.9.1) for QC, FastQC (V0.10.1) for QC assessment, Bowtie (V2.1.0) for mapping, strand cross-correlation (SCC) for ChIP quality assessment, MACS2 for peak calling, and R package ChIPpeakAnno for Peak annotated.
(In general: Quantitative PCR measures a nucleic acid by following its amplification.)

Assay [3] deals with NSD2 (T1150A) (Homo sapiens, UniProt O96028, T1150A).
Sequence of NSD2 (T1150A) (O96028 whole entry T1150A): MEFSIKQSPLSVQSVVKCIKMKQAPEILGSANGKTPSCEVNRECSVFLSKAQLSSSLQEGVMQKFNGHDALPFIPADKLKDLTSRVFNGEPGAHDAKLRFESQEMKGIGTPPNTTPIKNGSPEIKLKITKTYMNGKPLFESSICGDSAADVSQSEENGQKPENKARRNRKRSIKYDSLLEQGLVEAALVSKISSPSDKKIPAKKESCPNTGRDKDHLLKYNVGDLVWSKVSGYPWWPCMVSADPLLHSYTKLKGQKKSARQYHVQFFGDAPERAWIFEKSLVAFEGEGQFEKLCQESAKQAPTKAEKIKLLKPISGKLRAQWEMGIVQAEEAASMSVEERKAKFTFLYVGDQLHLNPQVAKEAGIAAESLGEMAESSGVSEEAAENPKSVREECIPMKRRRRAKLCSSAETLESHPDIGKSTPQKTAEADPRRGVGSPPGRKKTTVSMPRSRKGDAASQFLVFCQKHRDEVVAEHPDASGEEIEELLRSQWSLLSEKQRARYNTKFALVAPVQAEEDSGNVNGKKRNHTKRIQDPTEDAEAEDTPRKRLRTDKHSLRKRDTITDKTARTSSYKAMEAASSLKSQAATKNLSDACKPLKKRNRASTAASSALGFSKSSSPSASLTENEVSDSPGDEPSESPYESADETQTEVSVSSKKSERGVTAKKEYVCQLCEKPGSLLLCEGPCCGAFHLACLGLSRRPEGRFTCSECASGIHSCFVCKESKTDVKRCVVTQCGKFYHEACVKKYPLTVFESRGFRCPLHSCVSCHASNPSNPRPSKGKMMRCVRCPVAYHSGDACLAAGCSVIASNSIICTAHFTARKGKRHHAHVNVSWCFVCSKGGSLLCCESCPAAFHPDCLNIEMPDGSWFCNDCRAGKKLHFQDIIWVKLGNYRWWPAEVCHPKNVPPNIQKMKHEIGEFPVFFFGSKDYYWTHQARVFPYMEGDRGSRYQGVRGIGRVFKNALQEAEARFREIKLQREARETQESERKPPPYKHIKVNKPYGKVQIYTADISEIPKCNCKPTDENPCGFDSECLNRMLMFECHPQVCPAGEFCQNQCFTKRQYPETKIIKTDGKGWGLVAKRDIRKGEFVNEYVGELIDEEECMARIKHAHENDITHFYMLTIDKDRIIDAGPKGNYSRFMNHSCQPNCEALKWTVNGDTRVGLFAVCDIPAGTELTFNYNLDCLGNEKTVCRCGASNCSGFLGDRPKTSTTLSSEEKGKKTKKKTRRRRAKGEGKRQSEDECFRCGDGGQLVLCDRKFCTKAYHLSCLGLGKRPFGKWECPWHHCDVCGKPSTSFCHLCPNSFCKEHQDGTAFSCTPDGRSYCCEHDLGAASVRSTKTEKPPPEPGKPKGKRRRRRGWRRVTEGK
Assay [4] deals with DNMT1 (Homo sapiens, UniProt P26358). Nature of the assay: Radioisotope-based methyltransferase assay (selectivity). Conditions: IC50, DNMT1, 1 μM SAM.
Sequence of DNMT1 (P26358 whole entry): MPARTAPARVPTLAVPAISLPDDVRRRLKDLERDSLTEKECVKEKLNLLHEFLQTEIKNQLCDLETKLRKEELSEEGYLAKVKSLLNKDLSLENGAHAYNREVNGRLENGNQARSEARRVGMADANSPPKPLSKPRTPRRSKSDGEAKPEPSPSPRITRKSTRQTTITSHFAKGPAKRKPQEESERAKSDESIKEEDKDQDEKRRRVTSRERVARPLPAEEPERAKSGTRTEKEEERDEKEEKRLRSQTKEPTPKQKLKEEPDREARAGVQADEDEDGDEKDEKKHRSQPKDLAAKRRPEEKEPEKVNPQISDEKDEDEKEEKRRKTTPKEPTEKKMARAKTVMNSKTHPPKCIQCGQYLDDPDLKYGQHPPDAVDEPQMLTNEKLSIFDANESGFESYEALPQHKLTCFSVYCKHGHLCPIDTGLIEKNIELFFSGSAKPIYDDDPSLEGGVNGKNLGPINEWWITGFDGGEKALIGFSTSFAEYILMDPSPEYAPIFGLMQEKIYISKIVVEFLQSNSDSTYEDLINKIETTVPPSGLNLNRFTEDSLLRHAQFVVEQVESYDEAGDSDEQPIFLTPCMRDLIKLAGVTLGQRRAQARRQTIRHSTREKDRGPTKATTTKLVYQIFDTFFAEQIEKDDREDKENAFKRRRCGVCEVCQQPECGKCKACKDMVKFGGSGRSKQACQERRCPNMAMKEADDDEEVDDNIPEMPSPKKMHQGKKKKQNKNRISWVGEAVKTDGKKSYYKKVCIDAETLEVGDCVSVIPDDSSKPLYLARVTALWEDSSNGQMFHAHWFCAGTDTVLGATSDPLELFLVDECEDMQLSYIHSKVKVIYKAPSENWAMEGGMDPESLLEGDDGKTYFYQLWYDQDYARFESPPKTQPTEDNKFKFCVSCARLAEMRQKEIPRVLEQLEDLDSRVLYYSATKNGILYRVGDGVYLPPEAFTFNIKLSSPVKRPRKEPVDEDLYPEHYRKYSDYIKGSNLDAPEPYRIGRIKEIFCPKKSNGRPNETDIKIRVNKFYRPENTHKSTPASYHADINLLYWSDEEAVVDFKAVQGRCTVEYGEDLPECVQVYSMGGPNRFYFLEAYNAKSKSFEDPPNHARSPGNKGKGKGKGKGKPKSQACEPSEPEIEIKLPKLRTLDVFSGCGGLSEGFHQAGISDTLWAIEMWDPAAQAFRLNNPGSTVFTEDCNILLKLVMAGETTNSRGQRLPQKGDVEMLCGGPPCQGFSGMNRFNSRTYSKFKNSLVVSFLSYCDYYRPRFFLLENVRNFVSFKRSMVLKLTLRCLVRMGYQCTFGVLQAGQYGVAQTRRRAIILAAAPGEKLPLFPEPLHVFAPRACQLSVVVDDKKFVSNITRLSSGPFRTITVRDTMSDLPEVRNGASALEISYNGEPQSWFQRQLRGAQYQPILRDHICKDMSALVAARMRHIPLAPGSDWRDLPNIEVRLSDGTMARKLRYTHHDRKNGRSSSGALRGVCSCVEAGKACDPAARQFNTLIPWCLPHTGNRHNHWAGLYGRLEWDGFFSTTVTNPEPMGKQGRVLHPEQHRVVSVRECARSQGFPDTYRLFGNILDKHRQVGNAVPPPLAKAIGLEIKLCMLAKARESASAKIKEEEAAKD
Assay [5] concerns the target PRMT5/MEP50 (Homo sapiens, UniProt O14744). Described as above.

These results are taken from article PMC9837035 (Nature Communications, 2023).

“And” between values parts separate entries of the source, which are not always exact repeats. Equal values may be shown once.

Sequence of PRMT5/MEP50 (O14744 whole entry): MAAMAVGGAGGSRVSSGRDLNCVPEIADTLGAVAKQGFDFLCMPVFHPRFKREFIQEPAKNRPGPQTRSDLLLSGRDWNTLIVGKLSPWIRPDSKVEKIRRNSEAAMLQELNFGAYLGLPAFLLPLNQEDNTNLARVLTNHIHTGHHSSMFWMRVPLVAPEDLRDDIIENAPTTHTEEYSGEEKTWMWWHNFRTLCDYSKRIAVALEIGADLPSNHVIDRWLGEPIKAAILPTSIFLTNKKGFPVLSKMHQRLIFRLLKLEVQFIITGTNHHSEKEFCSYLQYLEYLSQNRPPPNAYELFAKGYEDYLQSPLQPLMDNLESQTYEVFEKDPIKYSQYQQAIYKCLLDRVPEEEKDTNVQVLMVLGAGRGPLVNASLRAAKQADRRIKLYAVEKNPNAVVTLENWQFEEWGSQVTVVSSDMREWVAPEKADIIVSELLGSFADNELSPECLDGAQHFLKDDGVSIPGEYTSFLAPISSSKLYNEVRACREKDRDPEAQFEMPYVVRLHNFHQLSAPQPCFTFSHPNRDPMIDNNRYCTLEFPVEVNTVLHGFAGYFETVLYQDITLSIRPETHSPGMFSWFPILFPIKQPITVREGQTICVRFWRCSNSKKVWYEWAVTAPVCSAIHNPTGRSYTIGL
Sequence of PRMT5/MEP50 (Q9BQA1 whole entry partner): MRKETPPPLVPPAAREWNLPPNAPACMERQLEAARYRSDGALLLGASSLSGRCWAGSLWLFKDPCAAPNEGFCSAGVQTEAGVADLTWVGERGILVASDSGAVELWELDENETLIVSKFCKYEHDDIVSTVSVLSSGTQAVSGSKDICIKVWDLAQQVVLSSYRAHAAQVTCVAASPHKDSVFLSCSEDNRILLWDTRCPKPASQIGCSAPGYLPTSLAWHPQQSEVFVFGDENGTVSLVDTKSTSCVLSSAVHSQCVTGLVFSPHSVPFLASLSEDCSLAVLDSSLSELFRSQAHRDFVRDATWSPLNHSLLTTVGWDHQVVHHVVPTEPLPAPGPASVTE

In the case of `NC(=O)NO` [Hydroxyurea, hydroxyurea], the H3K9me2 level result in assay [1] was “did not affect the H3K9me2 level”. Further, the “ChIP-qPCR using antibodies against H3K9me2 in HUDEP-2 cells” value in assay [2] (BGLT3 locus) was 0.3036 and 0.9734 and 0.09549 and 0.1907 and 0.4324 and 0.08257; in assay [2] (HS1), 0.1874 and 0.4067 and 0.1711 and 0.2985 and 0.4573 and 0.2803; in assay [2] (HS2) it was 0.813 and 0.5625 and 0.04813 and 0.5561 and 0.988; in assay [2] (HS3) it was 0.3829 and 1.033 and 0.3275 and 0.3135 and 0.5984 and 0.1213; in assay [2] (HS4), 0.2695 and 0.4846 and 0.05083 and 0.7217 and 0.09433; in assay [2] (β-globin promoter), 0.2611 and 0.4698 and 0.1317 and 0.1934 and 0.3991 and 0.1179. The “ChIP-qPCR using antibodies against H3K9me2 in HUDEP-2 cells” value was 0.6385 and 1.7009 and 0.2449 and 0.8192 and 0.4081 in assay [2] (γ-globin promoter); 0.1111 and 0.2374 and 0.06666 and 0.1168 and 0.2688 and 0.05187 in assay [2] (δ-globin promoter). Further, the “H3K9me2 levels at the β-globin gene locus” value in assay [2] (HUDEP-2, 200 μM, 4 days) is “did not alter H3K9me2 levels”.

By IC50 is commonly meant the concentration that gives 50% inhibition. In the case of `Cc1c(C(=O)NC(CCC2CC2)C(=O)Nc2ccc(C#N)cc2)[nH]c2c1C(=O)CC(C)(C)C2` (stereo not shown) [RK-701], the IC50 in assay [3], in assay [4] and in assay [5] was above 100 µM each time.
